# According to ChEMBL document CHEMBL5291721, “A preclinical secondary pharmacology resource illuminates target-adverse drug reaction associations of marketed drugs” (Nat Commun, 2023):
# Key:
# [1] = target: Gamma-aminobutyric acid receptor subunit alpha-1 (Rattus norvegicus, UniProt P62813)
# Histamine H2 receptor = Histamine H2 receptor (Homo sapiens, UniProt P25021); assay type: functional, cell-based
# Mu-type opioid receptor = Mu-type opioid receptor (Homo sapiens, UniProt P35372)
# [2] = target: T1, 5-hydroxytryptamine receptor 2C (Homo sapiens, UniProt P28335)
# T1 sequence (P28335 whole entry): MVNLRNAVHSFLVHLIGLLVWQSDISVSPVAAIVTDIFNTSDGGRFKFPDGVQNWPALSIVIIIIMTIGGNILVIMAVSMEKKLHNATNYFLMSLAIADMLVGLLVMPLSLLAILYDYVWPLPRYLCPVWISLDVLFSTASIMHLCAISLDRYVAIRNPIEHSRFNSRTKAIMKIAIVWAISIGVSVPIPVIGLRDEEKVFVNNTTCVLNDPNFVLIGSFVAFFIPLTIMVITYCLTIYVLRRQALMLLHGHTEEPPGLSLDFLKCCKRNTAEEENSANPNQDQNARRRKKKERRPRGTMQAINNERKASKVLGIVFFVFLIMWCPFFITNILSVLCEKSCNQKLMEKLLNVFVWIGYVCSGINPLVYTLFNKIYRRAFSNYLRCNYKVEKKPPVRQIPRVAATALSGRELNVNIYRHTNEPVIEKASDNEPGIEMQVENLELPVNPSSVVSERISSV
# [3] = target: Beta-2 adrenergic receptor (Homo sapiens, UniProt P07550)
# Sequence of Beta-2 adrenergic receptor (P07550 whole entry): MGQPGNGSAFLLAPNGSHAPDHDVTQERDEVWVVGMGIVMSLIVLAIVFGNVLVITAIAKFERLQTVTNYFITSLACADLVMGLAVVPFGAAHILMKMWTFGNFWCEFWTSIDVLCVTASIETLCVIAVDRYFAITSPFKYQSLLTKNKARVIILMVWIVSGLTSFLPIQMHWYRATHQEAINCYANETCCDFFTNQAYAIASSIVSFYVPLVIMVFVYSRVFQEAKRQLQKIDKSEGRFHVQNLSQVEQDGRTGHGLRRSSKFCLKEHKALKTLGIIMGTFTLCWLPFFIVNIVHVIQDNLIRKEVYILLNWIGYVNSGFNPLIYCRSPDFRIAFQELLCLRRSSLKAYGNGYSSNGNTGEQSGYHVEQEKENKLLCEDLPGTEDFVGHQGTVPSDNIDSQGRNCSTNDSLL
# [4] = target: Sodium-dependent dopamine transporter (Homo sapiens, UniProt Q01959)
# Sequence of Sodium-dependent dopamine transporter (Q01959 whole entry): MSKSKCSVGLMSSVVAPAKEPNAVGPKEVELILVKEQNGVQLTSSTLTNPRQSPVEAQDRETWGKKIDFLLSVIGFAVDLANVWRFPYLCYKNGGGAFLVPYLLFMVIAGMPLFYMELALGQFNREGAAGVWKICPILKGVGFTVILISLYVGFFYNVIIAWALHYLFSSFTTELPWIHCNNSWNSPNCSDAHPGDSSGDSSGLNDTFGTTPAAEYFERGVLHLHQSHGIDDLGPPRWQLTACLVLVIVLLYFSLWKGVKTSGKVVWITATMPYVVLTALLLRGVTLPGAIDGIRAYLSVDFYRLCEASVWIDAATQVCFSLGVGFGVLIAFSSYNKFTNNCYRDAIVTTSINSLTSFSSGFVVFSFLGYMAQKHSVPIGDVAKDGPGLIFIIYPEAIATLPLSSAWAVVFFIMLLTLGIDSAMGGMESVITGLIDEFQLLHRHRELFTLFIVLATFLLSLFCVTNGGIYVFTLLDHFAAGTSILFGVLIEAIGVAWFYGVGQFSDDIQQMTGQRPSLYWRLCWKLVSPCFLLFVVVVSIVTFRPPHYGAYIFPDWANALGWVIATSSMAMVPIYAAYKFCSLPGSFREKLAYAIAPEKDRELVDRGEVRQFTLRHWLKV
# [5] = target: Growth hormone secretagogue receptor type 1 (Homo sapiens, UniProt Q92847)
# Sequence of Growth hormone secretagogue receptor type 1 (Q92847 whole entry): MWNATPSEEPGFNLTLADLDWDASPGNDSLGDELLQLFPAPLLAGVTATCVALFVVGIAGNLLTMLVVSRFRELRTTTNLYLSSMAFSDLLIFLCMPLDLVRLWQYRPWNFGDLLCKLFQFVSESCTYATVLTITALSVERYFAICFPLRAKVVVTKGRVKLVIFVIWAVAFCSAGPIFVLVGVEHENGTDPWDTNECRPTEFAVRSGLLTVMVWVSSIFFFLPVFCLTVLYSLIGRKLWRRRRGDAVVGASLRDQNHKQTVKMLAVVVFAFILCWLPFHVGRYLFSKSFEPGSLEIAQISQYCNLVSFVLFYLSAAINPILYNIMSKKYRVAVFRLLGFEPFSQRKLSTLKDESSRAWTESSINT
# Thromboxane A2 receptor = target: T2, Thromboxane A2 receptor (Homo sapiens, UniProt P21731)
# T2 sequence (P21731 whole entry): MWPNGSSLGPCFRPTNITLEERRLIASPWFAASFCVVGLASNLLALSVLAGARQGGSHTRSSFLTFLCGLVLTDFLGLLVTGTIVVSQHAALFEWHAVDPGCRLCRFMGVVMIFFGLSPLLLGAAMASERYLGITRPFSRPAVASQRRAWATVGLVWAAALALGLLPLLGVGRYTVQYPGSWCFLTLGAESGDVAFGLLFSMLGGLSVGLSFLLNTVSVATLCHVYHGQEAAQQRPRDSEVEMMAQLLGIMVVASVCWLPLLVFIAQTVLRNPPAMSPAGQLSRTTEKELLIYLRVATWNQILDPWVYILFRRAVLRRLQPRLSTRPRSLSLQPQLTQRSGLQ
# [6] = target: Beta-1 adrenergic receptor (Homo sapiens, UniProt P08588); assay type: functional
# Sequence of Beta-1 adrenergic receptor (P08588 whole entry): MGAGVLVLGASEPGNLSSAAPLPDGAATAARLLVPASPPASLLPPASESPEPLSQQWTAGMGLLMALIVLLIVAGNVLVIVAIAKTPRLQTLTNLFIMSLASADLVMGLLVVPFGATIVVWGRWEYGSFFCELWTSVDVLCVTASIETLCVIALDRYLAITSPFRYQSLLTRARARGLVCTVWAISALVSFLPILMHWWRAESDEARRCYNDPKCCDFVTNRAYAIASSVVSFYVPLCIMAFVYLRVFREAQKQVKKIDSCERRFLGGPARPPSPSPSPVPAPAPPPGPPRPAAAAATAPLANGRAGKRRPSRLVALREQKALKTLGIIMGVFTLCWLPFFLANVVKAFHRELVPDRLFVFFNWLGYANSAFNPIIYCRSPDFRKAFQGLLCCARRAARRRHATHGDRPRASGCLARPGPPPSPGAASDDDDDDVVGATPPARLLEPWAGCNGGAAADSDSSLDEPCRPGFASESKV
# Progesterone receptor = target: T3, Progesterone receptor (Homo sapiens, UniProt P06401); assay type: functional
# T3 sequence (P06401 whole entry): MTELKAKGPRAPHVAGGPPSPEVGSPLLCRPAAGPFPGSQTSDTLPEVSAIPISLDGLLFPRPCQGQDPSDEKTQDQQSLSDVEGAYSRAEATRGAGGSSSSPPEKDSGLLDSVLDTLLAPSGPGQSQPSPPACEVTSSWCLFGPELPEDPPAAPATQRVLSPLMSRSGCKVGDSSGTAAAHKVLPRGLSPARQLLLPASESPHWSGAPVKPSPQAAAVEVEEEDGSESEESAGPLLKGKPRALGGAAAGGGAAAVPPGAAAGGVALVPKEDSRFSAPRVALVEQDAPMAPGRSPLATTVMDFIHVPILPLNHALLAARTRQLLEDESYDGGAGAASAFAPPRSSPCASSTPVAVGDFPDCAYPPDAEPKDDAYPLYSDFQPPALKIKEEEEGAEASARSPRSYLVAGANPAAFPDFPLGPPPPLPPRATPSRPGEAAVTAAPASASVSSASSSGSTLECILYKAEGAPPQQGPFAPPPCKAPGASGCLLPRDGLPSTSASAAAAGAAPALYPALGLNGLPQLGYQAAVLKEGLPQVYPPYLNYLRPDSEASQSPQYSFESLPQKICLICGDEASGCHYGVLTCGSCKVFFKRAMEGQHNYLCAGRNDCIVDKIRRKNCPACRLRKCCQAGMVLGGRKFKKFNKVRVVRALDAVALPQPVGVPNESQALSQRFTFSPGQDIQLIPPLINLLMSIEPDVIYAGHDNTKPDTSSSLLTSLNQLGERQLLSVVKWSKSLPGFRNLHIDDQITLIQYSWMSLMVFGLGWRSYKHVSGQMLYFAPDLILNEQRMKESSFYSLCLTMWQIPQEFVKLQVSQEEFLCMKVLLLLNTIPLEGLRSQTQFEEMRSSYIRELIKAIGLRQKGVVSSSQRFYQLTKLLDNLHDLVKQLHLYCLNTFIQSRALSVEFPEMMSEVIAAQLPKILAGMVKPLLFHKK
# [7] = target: T4, Alpha-2B adrenergic receptor (Homo sapiens, UniProt P18089)
# T4 sequence (P18089 whole entry): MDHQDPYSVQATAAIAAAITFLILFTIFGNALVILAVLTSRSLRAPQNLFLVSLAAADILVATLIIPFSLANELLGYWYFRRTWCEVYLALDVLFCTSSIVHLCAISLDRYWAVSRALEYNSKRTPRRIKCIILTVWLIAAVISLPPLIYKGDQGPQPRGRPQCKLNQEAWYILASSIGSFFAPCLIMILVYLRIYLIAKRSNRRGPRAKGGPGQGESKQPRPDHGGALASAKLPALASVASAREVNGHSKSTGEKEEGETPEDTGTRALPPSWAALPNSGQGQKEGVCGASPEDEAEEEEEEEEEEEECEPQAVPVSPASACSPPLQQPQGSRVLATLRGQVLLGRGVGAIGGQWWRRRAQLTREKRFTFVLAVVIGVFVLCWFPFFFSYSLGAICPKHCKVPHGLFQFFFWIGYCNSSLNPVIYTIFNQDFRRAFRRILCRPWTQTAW
# Also: assay procedure not described here.
# Sequence of Mu-type opioid receptor (P35372 whole entry): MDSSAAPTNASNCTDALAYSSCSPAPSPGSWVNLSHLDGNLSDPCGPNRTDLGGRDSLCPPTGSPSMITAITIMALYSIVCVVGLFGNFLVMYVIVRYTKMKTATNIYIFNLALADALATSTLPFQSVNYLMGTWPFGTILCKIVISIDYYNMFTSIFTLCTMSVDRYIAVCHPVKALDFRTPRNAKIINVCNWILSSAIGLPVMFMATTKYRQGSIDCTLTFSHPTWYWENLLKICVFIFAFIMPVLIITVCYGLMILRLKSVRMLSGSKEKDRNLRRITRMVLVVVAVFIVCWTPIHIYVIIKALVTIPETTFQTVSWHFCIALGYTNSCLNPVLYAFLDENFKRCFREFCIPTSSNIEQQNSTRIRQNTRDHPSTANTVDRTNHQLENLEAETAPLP
# Sequence of Histamine H2 receptor (P25021 whole entry): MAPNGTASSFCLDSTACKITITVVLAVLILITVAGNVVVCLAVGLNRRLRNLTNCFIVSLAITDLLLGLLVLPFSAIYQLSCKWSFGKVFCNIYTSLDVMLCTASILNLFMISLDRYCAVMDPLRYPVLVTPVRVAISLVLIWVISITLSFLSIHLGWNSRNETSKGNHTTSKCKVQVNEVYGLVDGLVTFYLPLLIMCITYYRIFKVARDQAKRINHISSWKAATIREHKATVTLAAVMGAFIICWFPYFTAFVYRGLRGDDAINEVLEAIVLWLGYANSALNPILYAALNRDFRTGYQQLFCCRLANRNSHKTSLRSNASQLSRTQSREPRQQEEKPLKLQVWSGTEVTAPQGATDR
# Sequence of Gamma-aminobutyric acid receptor subunit alpha-1 (P62813 whole entry): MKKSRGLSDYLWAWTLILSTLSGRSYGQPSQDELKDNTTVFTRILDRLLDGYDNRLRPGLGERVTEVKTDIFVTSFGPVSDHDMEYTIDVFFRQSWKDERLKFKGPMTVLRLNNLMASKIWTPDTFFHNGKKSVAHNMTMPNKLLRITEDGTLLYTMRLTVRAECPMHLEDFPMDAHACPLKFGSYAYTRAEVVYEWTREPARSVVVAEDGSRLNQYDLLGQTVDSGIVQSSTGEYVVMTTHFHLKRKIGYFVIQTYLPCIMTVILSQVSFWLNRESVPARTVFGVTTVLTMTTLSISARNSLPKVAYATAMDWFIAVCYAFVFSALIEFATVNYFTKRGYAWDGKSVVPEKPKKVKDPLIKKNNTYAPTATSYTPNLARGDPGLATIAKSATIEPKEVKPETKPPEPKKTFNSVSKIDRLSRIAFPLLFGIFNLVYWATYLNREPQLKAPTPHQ
Compound,AC50 [1] [µM],AC50 (Histamine H2 receptor) [µM],AC50 (Mu-type opioid receptor) [µM],AC50 [2] [µM],AC50 [3] [µM],AC50 [4] [µM],AC50 [5] [µM],AC50 (Thromboxane A2 receptor) [µM],AC50 [6] [µM],AC50 (Progesterone receptor) [µM],AC50 [7] [µM]
CN(Cc1cnc2nc(N)nc(N)c2n1)c1ccc(C(=O)N[C@@H](CCC(=O)O)C(=O)O)cc1 [METHOTREXATE],> 10,> 10,> 30,> 30,> 10,> 30,> 30,> 30,> 10,,
CCC[C@@H]1C[C@@H](C(=O)N[C@@H]([C@H]2O[C@H](SC)[C@H](O)[C@@H](O)[C@H]2O)[C@@H](C)O)N(C)C1 [LINCOMYCIN],> 10,> 10,> 30,> 30,> 10,> 10,> 10,> 10,> 10,,
CC(C)c1cccc(C(C)C)c1O [PROPOFOL],,,> 30,> 30,,> 30,> 30,,> 30,> 30,
CCC1(c2ccc(N)cc2)CCC(=O)NC1=O (stereo not drawn) [AMINOGLUTETHIMIDE],> 30,> 30,> 30,> 30,,> 30,> 30,> 30,> 30,> 30,
CC1=C(C(=O)OC(C)C)C(c2cccc([N+](=O)[O-])c2)C(C(=O)OC2CN(C(c3ccccc3)c3ccccc3)C2)=C(N)N1 (stereo not drawn) [AZELNIDIPINE],> 30,> 30,,> 30,> 30,26,> 30,> 30,27,> 3,> 30
CNCCc1ccc(OC(=O)C(C)C)c(OC(=O)C(C)C)c1 [IBOPAMINE],> 30,> 30,,> 30,> 30,> 30,> 30,> 30,> 30,> 30,> 30
